Test results: BindingDB's records for doi:10.1016/j.bioorg.2016.01.001 (Indian Institute of Integrative Medicine, 2016)

Molecular target: T1, Tyrosinase (Mus musculus, UniProt P11344)
T1 sequence (P11344 whole entry): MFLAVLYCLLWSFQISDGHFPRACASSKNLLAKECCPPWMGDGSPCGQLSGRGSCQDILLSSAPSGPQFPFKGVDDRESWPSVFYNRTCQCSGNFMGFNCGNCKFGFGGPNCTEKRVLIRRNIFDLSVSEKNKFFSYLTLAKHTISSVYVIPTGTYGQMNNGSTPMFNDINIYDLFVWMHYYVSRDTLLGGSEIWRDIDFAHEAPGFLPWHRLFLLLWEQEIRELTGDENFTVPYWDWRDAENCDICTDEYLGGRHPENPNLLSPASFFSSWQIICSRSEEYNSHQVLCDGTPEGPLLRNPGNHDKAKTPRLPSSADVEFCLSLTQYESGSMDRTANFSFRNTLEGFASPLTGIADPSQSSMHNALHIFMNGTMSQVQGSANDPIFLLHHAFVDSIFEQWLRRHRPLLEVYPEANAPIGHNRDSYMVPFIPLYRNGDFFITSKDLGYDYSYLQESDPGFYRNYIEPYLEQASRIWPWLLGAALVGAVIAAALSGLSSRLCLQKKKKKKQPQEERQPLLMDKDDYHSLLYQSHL
Assay: Tyrosinase Activity
Details: pH 6.8
Description: The reaction mixture contained 50 mM phosphate buffer, pH 6.8, 0.05% L-DOPA and the supernatant (tyrosinase). After incubation in the absence or presence of various stilbene derivatives (with varying concentrations ranging from 1 µg/mL to 100 µg/mL) at 37 °C for 20 min, dopachrome was monitored by measuring absorbanceat wavelength 492 nm by using a Molecular Devices microplate reader.

IC50 [µM]	SMILES
10.8	Oc1ccc(/C=C/c2cc(O)cc(O)c2)cc1 [5-[(E)-2-(4-hydroxyphenyl)ethenyl]benzene-1,3-diol]
5.06	N#C/C(=C/c1ccc(O)cc1)c1ccc(O)cc1 [(E)-2,3-bis(4-Hydroxyphenyl)acrylonitrile (21)]
270	N#C/C(=C/c1cccnc1)c1ccc(O)cc1 [(E)-2-(4-Hydroxyphenyl)-3-(pyridin-3-yl)acrylonitrile (22)]
276	COc1ccc(/C=C(/C=O)c2ccccc2)cc1 [(E)-3-(4-Methoxyphenyl)-2-phenylpropenal (20)]
> 500	COC(=O)/C(=C/c1ccc(O)c(OC)c1)c1ccc(OC)cc1 [(E)-Methyl-3-(4-hydroxy-3-methoxyphenyl)-2-(4-methoxyphenyl)acrylate (19)]
> 500	Fc1c(F)c(F)c(/C=C\c2ccccc2)c(F)c1F [Trans-1,2,3,4,5-Pentafluoro-6-styryl-benzene (14)]
> 500	C(=C\c1ccccc1)/c1ccccc1 [Trans-1,2-Diphenylethene (1)]
394	Fc1cc(F)cc(/C=C\c2ccccc2)c1 [Trans-1,3-Difluoro-5-styrylbenzene (12)]
277	Brc1ccc(/C=C\c2ccccc2)cc1 [Trans-1-Bromo-4-styrylbenzene (4)]
320	Clc1ccc(/C=C\c2ccccc2)cc1 [Trans-1-Chloro-4-styrylbenzene (3)]
79.4	Fc1ccc(/C=C\c2ccccc2)cc1 [Trans-1-Fluoro-4-styryl-benzene (2)]
433	COc1ccc(/C=C\c2ccccc2)cc1 [Trans-1-Methoxy-4-styryl-benzene (9)]
361	O=[N+]([O-])c1ccc(/C=C\c2ccccc2)cc1 [Trans-1-Nitro-4-styrylbenzene (5)]
50	COc1ccc(/C=C\c2ccc(F)cc2)cc1 [Trans-1-fluoro-4-(4-methoxystyryl)benzene (10)]
56.2	COc1ccc(/C=C\c2ccccc2)cc1Br [Trans-2-Bromo-1-methoxy-4-styryl-benzene (11)]
17.4	Oc1ccc(/C=C\c2ccccc2)cc1 [Trans-4-Styryl-phenol (8)]
50	N#Cc1ccc(/C=C\c2ccccc2)cc1 [Trans-4-Styrylbenzonitrile (6)]
166	C(=C/c1c2ccccc2cc2ccccc12)/c1ccccc1 [Trans-9-Styryl-anthracene (15)]
> 500	CC(=O)Oc1ccc(C=Cc2ccccc2)cc1 [Trans-Acetic acid 4-styryl-phenyl ester (7)]

SMILES	IC50 [µM]
COc1ccc(/C=C\c2cc(OC)c(OC)c(OC)c2)cc1 [1,2,3-Trimethoxy-5-[(Z)-2-(4-methoxy-phenyl)-vinyl]-benzene]	> 500
